Experimental data from US9045468B2, “2,5-methano- and 2,5-ethano-tetrahydrobenzazepine derivatives and use thereof to block reuptake of norepinephrine, dopamine, and serotonin” (Albany Molecular Research, Inc., priority 2010, dated 2015).

Legend:
hDAT = hDAT (Homo sapiens (Human), UniProt Q01959); assay: DAT radioligand binding assay ([125I]RTI-55, HEK-293 membranes); conditions: recombinant HEK-293 membranes, [125I]RTI-55; read-out: Binding Affinity (IC50, nM) DAT
Protocol: (§1) Recombinant HEK-293 cells expressing either the hSERT, hDAT, or hNET proteins were harvested from T-175 flasks as follows. The medium was removed from the flasks and the cells rinsed with HBSS without Ca and without Mg. The cells were then incubated for 5-10 minutes in 10 mM Tris-Cl, pH 7.5, 5 mM EDTA before the cells were lifted with a combination of pipetting and scraping, as needed. The cell suspension was collected into centrifuge bottles and homogenized for 30 seconds with a Polytron homogenizer. The suspension was centrifuged for 30 minutes at 32,000×g, 4° C. The supernatant was decanted and the pellet resuspended and homogenized in 50 mM Tris-Cl, pH 7.5, 1 mM EDTA for 10 seconds. The suspension was then centrifuged again for 30 minutes at 32,000×g, 4° C. The supernatant was decanted and the pellet resuspended in 50 mM Tris-Cl, pH 7.5, 1 mM EDTA and briefly homogenized. A Bradford assay (Bio-rad) was performed and the membrane preparation diluted to 2 mg/ml with 50 mM Tris-Cl, pH 7.5, 1 mM EDTA. Aliquots were prepared, and then frozen and stored at −80° C.
Compounds were dissolved in 100% DMSO at a concentration 100 times the desired highest assay concentration, serially diluted 1:3 in 100% DMSO, and 0.4 μl/well of each solution was dispensed to a Nunc polypropylene, round bottom, 384-well plate. […] 20 ul/well of a 2× membrane preparation (12.5 μg/ml in 30 mM sodium phosphate buffer, pH 7.9 at 4° C.) and 20 μl/well of a 2× radioligand solution (250 pM [^125I]RTI-55 in 30 mM sodium phosphate buffer, pH 7.9 at 4° C.) were added to the well and the reaction incubated for 1 hour at room temperature. The contents of the assay plate were then transferred to a Millipore MultiscreenHTS GF/B filter plate which was pretreated with 0.5% PEI for at least one hour. The plate was vacuum-filtered and washed with 7 washes of 100 μl/well 50 mM Tris-Cl, pH 7.5, 120 mM NaCl, 5 mM KCl chilled to 4° C. The filtration and washing were completed in less than 90 seconds. The plates were air-dried overnight, 12 μl/well of MicroScint scintillation fluid added, and the plates counted in a Trilux.
(§2) Each plate was run in triplicate, and the concentration response curve thus generated was fit using the four-parameter dose response equation, Y=Bottom+(Top-Bottom)/(1+10^((Log IC50−X)*HillSlope)) in order to determine the IC50 value for each compound. The radioligand concentration chosen for each assay corresponds to the Kd concentration determined through saturation binding analysis for each assay.

hNET = hNET (Homo sapiens (Human), UniProt P23975); assay: NET radioligand binding assay ([3H]nisoxetine, HEK-293 membranes); conditions: recombinant HEK-293 membranes, [3H]nisoxetine; read-out: Binding Affinity (IC50, nM) NET
Protocol: as §1, with “The” for “Recombinant HEK-293 cells expressing either the hSERT, hDAT, or hNET proteins were harvested from T-175 flasks as follows. The”
Compounds were dissolved in 100% DMSO at a concentration 100 times the desired highest assay concentration, serially diluted 1:3 in 100% DMSO, and 1.0 μl/well of each solution was dispensed to a Nunc polypropylene, round bottom, 384-well plate. […] 50 μl/well of a 2× membrane preparation (0.4 mg/ml in 50 mM Tris-Cl, pH 7.5, 120 mM NaCl, 5 mM KCl) and 50 μl/well of a 2× radioligand solution (4 nM [^3H]nisoxetine in 50 mM Tris-Cl, pH 7.5, 120 mM NaCl, 5 mM KCl) were added to the well and the reaction incubated for 1 hour at room temperature. The contents of the assay plate were then transferred to a Millipore MultiscreenHTS GF/B filter plate which was pretreated with 0.5% PEI for at least one hour. The plate was vacuum filtered and washed with 7 washes of 100 μl/well 50 mM Tris-Cl, pH 7.5, 120 mM NaCl, 5 mM KCl chilled to 4° C. The filtration and washing were completed in less than 90 seconds. The plates were air-dried overnight, 12 μl/well of MicroScint scintillation fluid added, and the plates counted in a Trilux.
as §2

hSERT = hSERT (Homo sapiens (Human), UniProt P31645); assay: SERT radioligand binding assay ([125I]RTI-55, HEK-293 membranes); conditions: recombinant HEK-293 membranes, [125I]RTI-55; read-out: Binding Affinity (IC50, nM) SERT
Protocol: as §1, with “The” for “Recombinant HEK-293 cells expressing either the hSERT, hDAT, or hNET proteins were harvested from T-175 flasks as follows. The”
Compounds were dissolved in 100% DMSO at a concentration 100 times the desired highest assay concentration, serially diluted 1:3 in 100% DMSO, and 0.4 μl/well of each solution was dispensed to a Nunc polypropylene, round bottom, 384-well plate. […] The contents of the assay plate were then transferred to a Millipore MultiscreenHTS GF/B filter plate which was pretreated with 0.5% PEI for at least one hour. The plate was vacuum filtered and washed with 7 washes of […] 50 mM Tris-Cl, pH 7.5, 120 mM NaCl, 5 mM KCl chilled to 4° C. The filtration and washing were completed in less than 90 seconds. The plates were air-dried overnight, 12 μl/well of MicroScint scintillation fluid added, and the plates counted in a Trilux.
as §2

hNET, sequence (P23975 whole entry): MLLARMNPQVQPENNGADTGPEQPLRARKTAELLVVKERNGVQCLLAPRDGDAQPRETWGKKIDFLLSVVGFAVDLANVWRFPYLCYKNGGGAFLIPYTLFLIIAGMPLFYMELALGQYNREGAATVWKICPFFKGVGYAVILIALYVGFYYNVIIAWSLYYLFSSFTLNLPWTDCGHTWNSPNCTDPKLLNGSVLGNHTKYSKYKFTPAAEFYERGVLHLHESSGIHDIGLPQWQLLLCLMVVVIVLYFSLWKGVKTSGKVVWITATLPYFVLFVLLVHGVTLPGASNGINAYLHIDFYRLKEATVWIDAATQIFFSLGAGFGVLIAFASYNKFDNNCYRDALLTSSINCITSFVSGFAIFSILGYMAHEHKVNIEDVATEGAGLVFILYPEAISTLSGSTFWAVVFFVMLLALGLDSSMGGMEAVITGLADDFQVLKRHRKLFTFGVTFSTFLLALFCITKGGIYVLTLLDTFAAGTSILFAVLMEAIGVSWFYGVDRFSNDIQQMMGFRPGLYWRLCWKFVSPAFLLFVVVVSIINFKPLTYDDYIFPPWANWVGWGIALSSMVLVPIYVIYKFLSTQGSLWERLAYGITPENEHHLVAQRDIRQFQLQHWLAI
hDAT, sequence (Q01959 whole entry): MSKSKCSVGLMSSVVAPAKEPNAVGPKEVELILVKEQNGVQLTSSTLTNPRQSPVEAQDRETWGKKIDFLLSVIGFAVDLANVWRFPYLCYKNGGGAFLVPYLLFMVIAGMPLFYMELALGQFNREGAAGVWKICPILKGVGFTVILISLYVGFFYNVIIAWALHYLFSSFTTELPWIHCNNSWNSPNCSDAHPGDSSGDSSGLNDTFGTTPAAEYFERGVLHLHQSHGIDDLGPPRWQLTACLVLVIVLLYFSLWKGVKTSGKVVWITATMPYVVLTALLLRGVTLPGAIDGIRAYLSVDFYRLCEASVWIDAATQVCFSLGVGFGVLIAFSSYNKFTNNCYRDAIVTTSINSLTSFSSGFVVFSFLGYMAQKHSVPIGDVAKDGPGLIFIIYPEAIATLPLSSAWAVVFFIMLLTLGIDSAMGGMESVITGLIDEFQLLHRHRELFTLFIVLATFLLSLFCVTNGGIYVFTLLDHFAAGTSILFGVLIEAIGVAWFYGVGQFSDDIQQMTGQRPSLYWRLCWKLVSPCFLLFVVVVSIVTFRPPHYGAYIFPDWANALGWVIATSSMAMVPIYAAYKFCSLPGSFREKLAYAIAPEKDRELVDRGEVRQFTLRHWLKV
hSERT, sequence (P31645 whole entry): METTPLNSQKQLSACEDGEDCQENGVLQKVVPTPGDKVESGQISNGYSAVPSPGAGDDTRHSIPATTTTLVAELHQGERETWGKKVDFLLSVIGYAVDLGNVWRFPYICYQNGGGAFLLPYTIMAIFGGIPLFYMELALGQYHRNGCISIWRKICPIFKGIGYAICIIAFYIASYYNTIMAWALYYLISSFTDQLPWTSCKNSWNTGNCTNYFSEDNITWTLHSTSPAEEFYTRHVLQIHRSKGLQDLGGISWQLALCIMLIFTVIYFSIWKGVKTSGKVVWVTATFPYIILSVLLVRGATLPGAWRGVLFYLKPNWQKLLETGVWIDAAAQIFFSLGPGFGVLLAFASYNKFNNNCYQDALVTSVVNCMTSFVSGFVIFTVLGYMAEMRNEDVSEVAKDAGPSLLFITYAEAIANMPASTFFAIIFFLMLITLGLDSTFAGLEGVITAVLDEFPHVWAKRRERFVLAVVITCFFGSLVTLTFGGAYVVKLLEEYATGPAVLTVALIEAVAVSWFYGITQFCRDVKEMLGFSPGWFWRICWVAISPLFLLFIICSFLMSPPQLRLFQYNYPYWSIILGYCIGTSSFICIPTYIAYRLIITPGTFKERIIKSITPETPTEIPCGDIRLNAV

Structure (SMILES)	IC50 (hDAT) [nM]	IC50 (hNET) [nM]	IC50 (hSERT) [nM]
CCS(=O)(=O)N1CCN(c2ccc3c(c2)CN2CCC3(c3ccc(Cl)cc3)CC2)CC1 [Example 30, 5-(4-chlorophenyl)-8-(4-(ethylsulfonyl)piperazin-1-yl)-2,5-ethano-2,3,4,5-tetrahydro-1H-benzo[c]azepine]	13.6	55.8	10
O=c1[nH]c2ccc(-c3ccc4c(c3)CN3CCC4(c4ccc(Cl)c(Cl)c4)C3)cc2o1 (single isomer, unassigned) [11(−), 8-(2-oxo-2,3-dihydrobenzo[d]oxazol-6-yl)-5-(3,4-dichlorophenyl)-2,5-methano-2,3,4,5-tetrahydro-1H-benzo[c]azepine]	19.6	92.4	3.9
FC(F)(F)c1ccc(C23CCN(CC2)Cc2cc(Oc4ccc(C(F)(F)F)nn4)ccc23)cc1 [Example 50, 2,5-ethano-5-(4-(trifluoromethyl)phenyl)-8-(6-(trifluoromethyl)pyridazin-3-yloxy)-2,3,4,5-tetrahydro-1H-benzo[c]azepine]	614	1050	10.9
Clc1ccc(C23CCN(CC2)Cc2cc(Oc4cnccn4)ccc23)cc1Cl [Example 44, 5-(3,4-dichlorophenyl)-2,5-ethano-8-(pyrazin-2-yloxy)-2,3,4,5-tetrahydro-1H-benzo[c]azepine]	33.9	161	4.7
Clc1ccc(C23CCN(CC2)Cc2cc(-c4ccc5ncnn5c4)ccc23)cc1Cl [Example 37, 8-([1,2,4]triazolo[1,5-a]pyridin-6-yl)-5-(3,4-dichlorophenyl)-2,5-ethano-2,3,4,5-tetrahydro-1H-benzo[c]azepine]	18.5	119	8.6
Clc1ccc(C23CCN(CC2)Cc2cc(-c4cnc5ccccc5n4)ccc23)cc1 [Example 21, 5-(4-chlorophenyl)-2,5-ethano-8-(quinoxalin-2-yl)-2,3,4,5-tetrahydro-1H-benzo[c]azepine]	353	1540	5.2
Cc1nnc(-c2ccc3c(c2)CN2CCC3(c3ccc(Cl)cc3)CC2)s1 [Example 25, 2-(5-(4-chlorophenyl)-2,5-ethano-2,3,4,5-tetrahydro-1H-benzo[c]azepin-8-yl)-5-methyl-1,3,4-thiadiazole]	169	392	6.4
FC(F)(F)c1ccc(-c2ccc3c(c2)CN2CCC3(c3ccc(Cl)cc3)C2)nn1 (racemic) [Example 5, rac-5-(4-chlorophenyl)-2,5-methano-8-(6-(trifluoromethyl)pyridazin-3-yl)-2,3,4,5-tetrahydro-1H-benzo[c]azepine]	74.2	274	10.1
O=c1ccccn1-c1ccc2c(c1)CN1CCC2(c2ccc(Cl)cc2)CC1 [Example 24, 1-(5-(4-chlorophenyl)-2,5-ethano-2,3,4,5-tetrahydro-1H-benzo[c]azepin-8-yl)pyridin-2(1H)-one]	856	5330	7.3
COc1ccc2c(c1)CN1CCC2(c2ccc(Cl)cc2)C1 (racemic) [Example 1, rac-5-(4-chlorophenyl)-8-methoxy-2,5-methano-2,3,4,5-tetrahydro-1H-benzo[c]azepine]		675	74.2
Oc1ccc2c(c1)CN1CCC2(c2ccc(Cl)cc2)C1 (racemic) [Example 2, rac-5-(4-chlorophenyl)-2,5-methano-2,3,4,5-tetrahydro-1H-benzo[c]azepin-8-ol]			126
FC(F)(F)c1nnc2ccc(-c3ccc4c(c3)CN3CCC4(c4ccc(Cl)cc4)C3)cn12 (racemic) [Example 4, rac-5-(4-chlorophenyl)-2,5-methano-8-(3-(trifluoromethyl)-[1,2,4]triazolo[4,3-a]pyridin-6-yl)-2,3,4,5-tetrahydro-1H-benzo[c]azepine]	603	70.5	
